In brackets after ≈: the same amount, converted by molar mass. Several values for one entry are separate records, joined by “and”; a condition that tells them apart may be missing. Equal entries are not always repeated. Where two headings read alike, the source gives them in different places.
Assays:
HL-60 cells = settings: cited from earlier work
[1] = test system: human tumor (MDA-MB-231, EJ, K-562, HL-60 and HL-60/DOX) cell lines; assay: MTT cytotoxicity test, tumor cell line panel; format: cell-based; settings: Homo sapiens; average IC50 of all chemo-sensitive tested tumor cell lines; read-out: x
Text: (§1) The group of human cell lines used in this study were represented by the tumor cell lines MDA-MB (breast carcinoma), EJ (urinary bladder carcinoma), K-562 (chronic myeloid leukemia), HL-60 (acute pre-myeloid leukemia), HL-60/DOX (multi-drug resistant HL-60 cell line, with over expression of MRP-1) and the non-tumorigenic cell lines HEK-293 (embryonic kidney cells) and EA.hy926 (vascular endothelial cells). EJ, HL60 and EA.hy926 were purchased from American Type Culture Collection (ATCC) (Manassas, Virginia). The other cell lines were purchased from the German Collection of Microorganisms and Cell Cultures (DSMZ GmbH, Braunschweig, Germany). HL-60/DOX cell lines were generated by periodically treating HL-60 cells with anthracyclins. The conditions in which the cell culture flasks were maintained were as follows: 37 °C in an incubator “BB 16-Function Line” Heraeus (Kendro, Hanau, Germany) with 5% CO2 humidified atmosphere. The growth medium was 90% RPMI-1640, supplemented with 10% FBS and 2 mM L-glutamine. MDA-MB-231, EJ, HEK-293 and EA.hy926 cells were maintained as adherent monolayer cultures while all the other (leukemic) cell lines were grown as suspension type cultures. Cells were maintained in log phase: the adherent cell lines were subjected to trypsinization 1–2 times a week and the leukemic cell lines were passaged 2–3 times a week by removing of part of the cellular suspension and substituting it with fresh medium.
(§2) The evaluation of cytotoxic activity was conducted by MTT test as described previously. The median inhibitory concentration (IC50) values which represent the half-maximal concentration values were calculated from sigmoidal concentration–response curves, using non-linear regression analysis (Curve fit, GraphPad Prizm 5.0 software, GraphPad Software Inc., San Diego, CA, USA). The selectivity index was calculated as the ratio of the IC50 of a non-cancerous line (HEK-293 or EA.hy926) and the average IC50 of all chemosensitive tested tumor cell lines (x). Therefore, SI=IC50HEK-293/IC50x . The resistance index (RI) was calculated as the ratio of IC50 of the multi-drug resistant HL-60/DOX cell line and the IC50 of its parent cell line: RI=IC50HL-60/DOX/IC50HL-60 .

procaspase 9 = assay: Western blot, procaspase 9; format: cell-based, human; settings: MDA-MB-231 and HL60/DOX
Procedure: (§3) Next, the samples were lysed on ice with a buffer containing 100 mM Tris–HCl at pH 8.0, 4% SDS, 20% glycerol, 1% Na3VO4, 200 mM dithiothreitol (DTT) (Sigma-Aldrich, St. Louis, MO, USA) and protease inhibitor (Roche, Basel, Switzerland). Then the cell lysate was boiled for 15 min and centrifuged at 13,000 rpm for 10 min at 4 °C. Before DTT addition, aliquot samples of 10 μL were taken from the lysates. Their protein concentrations were determined using a BCA protein assay kit (ThermoFisher Scientific, Waltham, MA, USA) after dilution 5× with H2O. Subsequently, the samples were subjected to denaturing SDS-PAGE electrophoresis and then transferred to PVDF membrane (Santa Cruz Biotechnology, USA). After this, the blots were fixed with blocking solution (5% w/v nonfat dried milk powder, dissolved in TBS) and incubated with specific primary antibodies: mouse procaspase-9 (sc-17784), mouse Bcl-2 (C-2, sc-7382) and mouse β-actin (sc-8432). The incubation was either overnight at 4 °C or for 150 min at room temperature. After washing, the membranes were incubated for 45 min with horseradish peroxidase conjugated secondary goat anti-mouse antibody (sc-2005) or mouse IgG kappa antibody (sc-516102) (Santa Cruz Biotechnology, Santa Cruz, CA, USA). […] This densitometry analysis of the blots was calculated by Quantity One software version 4.6.9 (Bio-Rad Laboratories, Hercules, CA, USA). […]

EJ = assay: MTT cytotoxicity test; format: cell-based, human; settings: Homo sapiens, 72 h exposure
Text: as §1, §2

K-562 [2] = assay: MTT cytotoxicity test; format: cell-based, human; settings: Homo sapiens, K562, K-562, 72 h exposure
Text: as §1, §2

HL-60 [3] = assay: MTT cytotoxicity test; format: cell-based, human; settings: Homo sapiens, HL-60, 72 h exposure
Text: as §1, §2

MDA-MB-231 [4] = assay: MTT cytotoxicity test; format: cell-based, human; settings: Homo sapiens, MDA-MB-231, 72 h exposure
Text: as §1, §2

HEK-293 = assay: MTT cytotoxicity test; format: cell-based, human; settings: Homo sapiens, HEK293, HEK-293, 72 h exposure
Text: as §1, §2

HL-60/DOX = assay: MTT cytotoxicity test; format: cell-based, human; settings: Homo sapiens, 72 h exposure
Text: as §1, §2

EA.hy926 = assay: MTT cytotoxicity test; format: cell-based, human; settings: Homo sapiens, EA.hy 926, EA.hy926, 72 h exposure
Text: as §1, §2

K-562 [5] = assay: Antiproliferative test (NCI methodology); format: cell-based, human; settings: for GI50: Homo sapiens, K562, K-562, MTT readout; for TGI: K-562, total growth inhibition
Text: as §1
(§4) The test was performed according the methodology of National Cancer Institute (NCI), USA [116]. Briefly, cells were seeded into 96-well plates in the same way as for an MTT test and after 24 h, the absorption of one plate of each cell line was measured as in the MTT assay described above, to represent a measurement of the cell population at the time of drug-addition (Tz). The rest of the plates were treated with the tested compounds and the experiment for them continued as the MTT-method. Using the absorbance measurements [(Tz, untreated control growth (C) and test growth in the present of the compounds (Ti)], the percentage growth is calculated at each of the tested concentrations of the compounds. Percentage growth inhibition (GI) is calculated as GI%=Ti−Tz/C−Tz×100 for concentrations for which Ti ≥ Tz. For concentrations in which Ti < Tz it is calculated as GI%=Ti−Tz/Tz×100 . Two dose parameters are calculated for each experimental agent. Growth inhibition of 50% (GI50) is calculated from Ti−Tz/C−Tz×100=50 . This is the drug concentration resulting in a 50% reduction in the net protein increase (as measured by MTT-test) in control cells during the drug incubation. The drug concentration resulting in total growth inhibition (TGI) is calculated from Ti = Tz.

HL-60 [6] = assay: Antiproliferative test (NCI methodology); format: cell-based, human; settings: for TGI: HL-60, total growth inhibition; for GI50: Homo sapiens, HL-60, MTT readout
Text: as §1, §4

MDA-MB-231 [7] = assay: Antiproliferative test (NCI methodology); format: cell-based, human; settings: for GI50: Homo sapiens, MDA-MB-231, MTT readout; for TGI: MDA-MB-231, total growth inhibition
Text: as §1, §4

MRSA = settings: growth of MRSA; cited from earlier work
[8] = test system: Staphylococcus aureus (ATCC 29213); assay: MIC by broth microdilution; format: cell-based; settings: ATCC29213, Staphylococcus aureus, read-out: MIC
Text: (§5) The Gram-positive bacterial strains that were examined for susceptibility were: Staphylococcus aureus (ATCC 29213, American Type Cell Culture Collection, Manassas, VA, USA), Staphylococcus aureus—MRSA (NBIMCC 8327-resistant to methicillin and oxacillin, National Bulgarian Collection for Industrial Microorganisms and Cell Cultures, Sofia, Bulgaria), Enterococcus faecalis (ATCC 29212) and Streptococcus pyogenes (SAIMC 10535, Collection of the Stephan Angeloff Institute of Microbiology, Sofia, Bulgaria). The only Gram-negative bacterial strain used was Escherichia coli (ATCC 35218). Bacteria were maintained in Trypticase Soy Broth (TSB, Himedia, India) at 37 °C, aerobic conditions. For the experiments brain heart infusion (BHI) broth (#M210 HiMedia, Mumbai, India) was used for E. faecalis and S. pyogenes and Mueller Hinton broth (MHB, #M0405B) from Thermo Scientific-Oxoid (Basingstoke, UK)—for all other strains.
(§6) BMD was performed according to the following protocol of ISO 20776/1-2006 [117]. A bacterial suspension with density of 10^8 CFU/mL (0.5 McFarland standard, OD600) was prepared from an overnight grown liquid bacterial culture homogenized over vortex and brought to a working bacterial suspension (WBS) with concentration of 5×10^5 CFU/mL by being diluted 200× with MHB or BHI broth and homogenized over vortex again. Two-fold serial dilutions of compounds 3–5 was prepared in 96-well round bottom plates to a volume of 50 μL and final range of concentrations 100–0.2 μg/mL. Stock solutions were dissolved in ethanol and MHB was used as diluent and as test for absence of contamination. Three wells were left as blank samples and 6 wells were left for control samples. An equivalent volume (50 μL) of the WBS was inoculated to each well in the aforementioned plates achieve final bacterial density of […] with the exception of the blank wells. After 18–24 h incubation under aerobic standardized conditions at 37 °C the plates were examined. […] Antibiotics dissolved in sterile distilled water were used as referent positive controls. They were penicillin G (PEN, #B0500000, Merck KGaA, Darmstadt, Germany) for E. faecalis and S. pyogenes, gentamicin (GEN, #15750-037, 50 mg/mL, Gibco, Paisley, UK) for all bacteria except S. pyogenes and ciprofloxacin (CIP, Ciproflav:10 mg/mL, Polfa S.A. Warsaw Pharmaceutical Works, Starogard Gdanski, Poland) for E. faecalis. The range of concentrations were 0.004–2 mg/L for PEN, 0.008–4 mg/L for GEN and 0.005–2 mg/L for CIP. The requirements of EUCAST (European Committee on Antimicrobial Susceptibility Testing) for their MICs were followed for discussing the results. In the end the plates which contained active agents were subjected to assessment of the dehydrogenase activity of the bacteria.

[9] = test system: Staphylococcus aureus—MRSA (NBIMCC 8327); assay: MIC by broth microdilution; format: cell-based; settings: read-out: MIC
Text: as §5, §6

[10] = test system: Enterococcus faecalis (ATCC 29212); assay: MIC by broth microdilution; format: cell-based; settings: ATCC29212, read-out: MIC
Text: as §5, §6

K-562 cells = settings: cited from earlier work
[11] = test system: Streptococcus pyogenes (SAIMC 10535); assay: MIC by broth microdilution; format: cell-based; settings: read-out: MIC
Text: as §5, §6

Bcl-2 = assay: Western blot, Bcl-2; format: cell-based, human; settings: MDA-MB-231 and HL60/DOX
Procedure: as §3

[12] = test system: NorA multidrug efflux pumps; set-up: method as in PMID 24119569; settings: S. aureus; cited from earlier work
MDA-MB-231 cells = settings: cited from earlier work

Compound: hyphenrone R
- IC50 (HL-60 cells): 3.3 µM

Compound: CC(C)=CCC/C(C)=C/COc1cc(O)cc(O)c1C(=O)C(C)C [Compound 1, (E)-1-[2-{(3,7-dimethylocta-2,6-dien-1-yl)oxy}-4,6-dihydroxyphenyl]-2-methylpropan-1-one]
- IC50 [1]: 14.5 µM
- degradation of the precursor caspase 9 (in words) (procaspase 9): not any observed decrease
- IC50 (EJ): 7.01 ± 1.3 µM
- IC50 (K-562 [2]): 9.05 ± 0.8 µM
- IC50 (HL-60 [3]): 16.6 ± 3.3 µM
- IC50 (MDA-MB-231 [4]): 24.9 ± 3.2 µM
- IC50 (HEK-293): 14.7 ± 2.2 µM
- IC50 (HL-60/DOX): 5.59 ± 0.4 µM
- IC50 (EA.hy926): 6.73 ± 0.9 µM
- GI50 (K-562 [5]): 5.2 µM
- TGI (K-562 [5]): 11.90 µM
- TGI (HL-60 [6]): 9.39 µM
- GI50 (HL-60 [6]): 3.79 µM
- GI50 (MDA-MB-231 [7]): 10.4 µM
- TGI (MDA-MB-231 [7]): 18.56 µM
- MIC50 (MRSA): 1.14 µg/mL (≈ 3.43 µM)

Compound: CNC(C)C1CCC(N)C(OC2C(N)CC(N)C(OC3OCC(C)(O)C(NC)C3O)C2O)O1 (centres unmarked) [Gentamicin, gentamicin, reference compound]
- MIC [8]: 0.25 µg/mL and 0.52 µM
- MIC [9]: 0.25 µg/mL and 0.52 µM
- MIC [10]: 8 µg/mL and 16.8 µM

Compound: hyperbeanol B
- IC50 (K-562 cells; K-562 cells): 17 µM

Compound: COc1cc([C@@H]2c3cc4c(cc3[C@@H](O[C@@H]3O[C@@H]5CO[C@@H](C)O[C@H]5[C@H](O)[C@H]3O)[C@H]3COC(=O)[C@H]23)OCO4)cc(OC)c1O [Etoposide, reference compound]
- IC50 (EJ): 5.4 ± 1.3 µM
- IC50 (K-562 [2]): 2.34 ± 0.7 µM
- IC50 (HL-60 [3]): 1.27 ± 0.4 µM
- IC50 (MDA-MB-231 [4]): 8.42 ± 1.3 µM
- IC50 (HL-60/DOX): 42.3 ± 2.7 µM

Compound: CC1(C)S[C@@H]2[C@H](NC(=O)Cc3ccccc3)C(=O)N2[C@H]1C(=O)O [Penicillin, penicillin G, reference compound]
- MIC [11]: 0.08 µg/mL and 0.24 µM
- MIC [10]: 2.5 µg/mL and 7.48 µM

Compound: hyperforin
- IC50 (K-562 cells; K-562): 3.2 µM

Compound: hyperisampsin J
- IC50 (HL-60 cells): 0.56 µM

Compound: hyperbeanol D
- IC50 (K-562 cells; K-562 cells): 21 µM

Compound: Hyperisampsin M
- IC50 (HL-60 cells): 1.4 µM

Compound: CC[C@H](C)C(=O)c1c(O)cc(O)cc1OC/C=C(\C)CCC=C(C)C [Compound 2, olympicin A]
- IC50 [1]: 11.3 µM
- degradation of the antiapoptotic protein Bcl-2 (in words) (Bcl-2): degradation
- inhibition of efflux from NorA multidrug efflux pumps [12]: inhibited the efflux
- IC50 (EJ): 5.61 ± 0.5 µM
- IC50 (K-562 [2]): 22.9 ± 4 µM
- IC50 (HL-60 [3]): 13.8 ± 1.8 µM
- IC50 (MDA-MB-231 [4]): 2.95 ± 0.4 µM
- IC50 (HEK-293): 22.5 ± 3.8 µM
- IC50 (HL-60/DOX): 1.96 ± 0.2 µM
- IC50 (EA.hy926): 34 ± 6.5 µM
- GI50 (K-562 [5]): 20.3 µM
- TGI (K-562 [5]): 23.49 µM
- TGI (HL-60 [6]): 81.63 µM
- GI50 (HL-60 [6]): 72.6 µM
- GI50 (MDA-MB-231 [7]): 1.07 µM
- TGI (MDA-MB-231 [7]): 2.54 µM
- IC50 (MRSA): 1.80 µg/mL (≈ 5.2 µM)

Compound: hyperatomarin
- IC50 (MDA-MB-231 cells): 0.86 µM
